For experiment [1], the target named is T1, catalytic domain of human Bub1 (amino acids 704-1085) (Homo sapiens, UniProt O43683).
T1 construct: catalytic domain of human Bub1 (amino acids 704-1085); His6 (N); made in house; host or cells: Hi5 insect cells
As to the kind of experiment: Bub1 kinase assay (TR-FRET). In kind it is biochemical. On the procedure:
To this end, 100-fold concentrated compound solutions (in DMSO) were previously prepared by serial dilution (1:3.4) of 2 mM stocks in a clear low volume 384-well source microtiter plate (Greiner Bio-One, Frickenhausen, Germany), from which 50 nl of compounds were transferred into a black low volume test microtiter plate from the same supplier. […] The resulting mixture (5 μL final volume) was incubated at […] during 60 min., and the reaction was stopped by the addition of 5 μL of an aqueous EDTA-solution (50 mM EDTA, in 100 mM HEPES pH 7.5 and 0.2% (w/v) bovine serum albumin) which also contained the TR-FRET detection reagents (0.2 μM streptavidin-XL665 [Cisbio Bioassays, Codolet, France] and 1 nM anti-phosho-Serine antibody [Merck Millipore, cat. #35-001] and 0.4 nM LANCE EU-W1024 labeled anti-mouse IgG antibody [Perkin-Elmer, product no. AD0077, alternatively a Terbium-cryptate-labeled anti-mouse IgG antibody from Cisbio Bioassays can be used]). The stopped reaction mixture was further incubated 1 h at 22° C. in order to allow the formation of complexes between peptides and detection reagents. Subsequently, the amount of product was evaluated by measurement of the resonance energy transfer from the Eu-chelate-antibody complex recognizing the Phosphoserine residue to the streptavidin-XL665 bound to the biotin moiety of the peptide. […] IC50 values were calculated by fitting the normalized inhibition data to a 4-parameter logistic equation (Minimum, Maximum, IC50, Hill; Y=Max+(Min−Max)/(1+(X/IC50)Hill)).

A further experiment deals with HeLa cell line. The experiment can be described thus: Proliferation assay (HeLa cell line). In kind it is cell-based. The note with it: Homo sapiens, 96 h, read-out: Biological Assay 2: Proliferation assay (HeLa cell line) median IC50. On the procedure: Cultivated tumor cells (cells were ordered from ATCC, except HeLa-MaTu and HeLa-MaTu-ADR, which were ordered from EPO-GmbH, Berlin) were plated at a density of 1000 to 5000 cells/well, depending on the growth rate of the respective cell line, in a 96-well multititer plate in 200 μL of their respective growth medium supplemented 10% fetal calf serum. After 24 hours, the cells of one plate (zero-point plate) were stained with crystal violet (see below), while the medium of the other plates was replaced by fresh culture medium (200 μL), to which the test substances were added in various concentrations (0 μM, as well as in the range of 0.001-10 μM; the final concentration of the solvent dimethyl sulfoxide was 0.5%). The cells were incubated for 4 days in the presence of test substances. Cell proliferation was determined by staining the cells with crystal violet: the cells were fixed by adding 20 μl/measuring point of an 11% glutaric aldehyde solution for 15 minutes at room temperature. After three washing cycles of the fixed cells with water, the plates were dried at room temperature. The cells were stained by adding 100 μl/measuring point of a 0.1% crystal violet solution (pH 3.0). After three washing cycles of the stained cells with water, the plates were dried at room temperature. The dye was dissolved by adding 100 μl/measuring point of a 10% acetic acid solution. Absorption was determined by photometry at a wavelength of 595 nm. The change of cell number, in percent, was calculated by normalization of the measured values to the absorption values of the zero-point plate (=0%) and the absorption of the untreated (0 μm) cells (=100%). The IC50 values were determined by means of a 4 parameter fit using the company's own software.

[2] abbreviates: TR-FRET, 10 μM ATP, 1 μM peptide substrate, read-out: Biological Assay 1: Bub1 kinase assay median IC50.
The mark [3] stands for this setting: cervical cancer, 4 days incubation, crystal violet staining.

Read-outs that look alike come from different tables or passages of the source.

T1 sequence (O43683 704-1085): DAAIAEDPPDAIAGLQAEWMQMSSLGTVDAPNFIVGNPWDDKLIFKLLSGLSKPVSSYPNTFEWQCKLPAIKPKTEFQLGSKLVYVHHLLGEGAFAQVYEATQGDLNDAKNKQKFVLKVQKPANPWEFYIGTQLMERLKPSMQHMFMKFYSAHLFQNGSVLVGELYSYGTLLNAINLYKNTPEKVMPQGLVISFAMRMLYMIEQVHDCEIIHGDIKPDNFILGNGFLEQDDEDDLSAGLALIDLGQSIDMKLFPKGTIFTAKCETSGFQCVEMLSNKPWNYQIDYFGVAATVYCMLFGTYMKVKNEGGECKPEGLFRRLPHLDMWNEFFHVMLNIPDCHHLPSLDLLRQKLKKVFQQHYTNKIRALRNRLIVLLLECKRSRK

On to `Nc1cc(Nc2ccncc2)nc(-c2nn(Cc3ccccc3F)c3ccccc23)n1` [Example 2-1-1, 2-[1-(2-fluorobenzyl)-1H-indazol-3-yl]-N-(pyridin-4-yl)pyrimidine-4,6-diamine], for which the IC50 in experiment [1] (setting [2]) was 19 nM; in the experiment with HeLa cell line it was 3600 nM.

`CC(=O)Nc1cc(Nc2ccncc2)nc(-c2nn(Cc3ccccc3F)c3ccccc23)n1` [Example 2-2-1, N-{2-[1-(2-fluorobenzyl)-1H-indazol-3-yl]-6-(pyridin-4-ylamino)pyrimidin-4-yl}acetamide]: the figures for the IC50 (in experiment [1]; in the experiment with HeLa cell line (setting [3])) were above 20000 nM and at least 10000 nM, respectively.

Turning to `COCC(=O)Nc1cc(Nc2ccncc2)nc(-c2nn(Cc3ccccc3F)c3ccccc23)n1` [Example 2-2-2, N-{2-[1-(2-fluorobenzyl)-1H-indazol-3-yl]-6-(pyridin-4-ylamino)pyrimidin-4-yl}-2-methoxyacetamide], the IC50 in experiment [1] (setting [2]) is 96 nM; in the experiment on HeLa cell line it was at least 10000 nM.

As for `CC(=O)Nc1cc(N(c2ccncc2)c2ccncc2)nc(-c2nn(Cc3ccccc3F)c3ccccc23)n1` [Example 2-2-3, N-{6-(dipyridin-4-ylamino)-2-[1-(2-fluorobenzyl)-1H-indazol-3-yl]-pyrimidin-4-yl}acetamide], the IC50 in experiment [1] (setting [2]) was found to be 18000 nM.

`COCC(=O)Nc1cc(N(c2ccncc2)c2ccncc2)nc(-c2nn(Cc3ccccc3F)c3ccccc23)n1` [Example 2-2-4, N-{6-(dipyridin-4-ylamino)-2-[1-(2-fluorobenzyl)-1H-indazol-3-yl]pyrimidin-4-yl}-2-methoxyacetamide] showed an IC50 in experiment [1] above 20000 nM.

`CCOc1cc(F)c(Cn2nc(-c3nc(N)cc(Nc4ccncc4)n3)c3ccccc32)c(F)c1` [Example 2-3-1, 2-[1-(4-ethoxy-2,6-difluorobenzyl)-1H-indazol-3-yl]-N-(pyridin-4-yl)pyrimidine-4,6-diamine]: the IC50 was 6.4 nM in experiment [1] (setting [2]) and 1300 nM in the experiment on HeLa cell line.

For the molecule `CCOc1cc(F)c(Cn2nc(-c3nc(N)c(OC)c(Nc4ccncc4)n3)c3ccccc32)c(F)c1` [Example 2-3-2, 2-[1-(4-ethoxy-2,6-difluorobenzyl)-1H-indazol-3-yl]-5-methoxy-N-(pyridin-4-yl)pyrimidine-4,6-diamine], the IC50 in experiment [1] (setting [2]) turned out to be 8.3 nM; in the experiment with HeLa cell line, 3800 nM.

Consider `CCOc1cc(F)c(Cn2nc(-c3nc(N)c(N4CCOCC4)c(Nc4ccncc4)n3)c3ccccc32)c(F)c1` [Example 2-3-3, 2-[1-(4-ethoxy-2,6-difluorobenzyl)-1H-indazol-3-yl]-5-(morpholin-4-yl)-N-(pyridin-4-yl)pyrimidine-4,6-diamine], for which the IC50 is 4.3 nM in experiment [1] (setting [2]) and 3600 nM with HeLa cell line.

With `CCNC(=O)Nc1nc(-c2nn(Cc3c(F)cc(OCC)cc3F)c3ccccc23)nc(Nc2ccncc2)c1N1CCOCC1` [Example 2-3-4, 1-{2-[1-(4-ethoxy-2,6-difluorobenzyl)-1H-indazol-3-yl]-5-(morpholin-4-yl)-6-(pyridin-4-ylamino)pyrimidin-4-yl}-3-ethylurea], the IC50 is 130 nM in experiment [1] and at least 10000 nM in the experiment on HeLa cell line (setting [3]).

As to `CCOc1cc(F)c(Cn2nc(-c3nc(N)cc(Nc4ccncn4)n3)c3ccccc32)c(F)c1` [Example 2-3-5, 2-[1-(4-ethoxy-2,6-difluorobenzyl)-1H-indazol-3-yl]-N-(pyrimidin-4-yl)pyrimidine-4,6-diamine], the IC50 in experiment [1] (setting [2]) amounted to 5.3 nM; with HeLa cell line, 7800 nM.

With `CCOc1cc(F)c(Cn2nc(-c3nc(N)c(OC)c(Nc4ccncn4)n3)c3ccccc32)c(F)c1` [Example 2-3-6, 2-[1-(4-ethoxy-2,6-difluorobenzyl)-1H-indazol-3-yl]-5-methoxy-N-(pyrimidin-4-yl)pyrimidine-4,6-diamine], the IC50 in experiment [1] (setting [2]) turned out to be 6.5 nM.

Consider `CCOc1cc(F)c(Cn2nc(-c3nc(N)c(N4CCOCC4)c(Nc4ccncn4)n3)c3ccccc32)c(F)c1` [Example 2-3-7, 2-[1-(4-ethoxy-2,6-difluorobenzyl)-1H-indazol-3-yl]-5-(morpholin-4-yl)-N-(pyrimidin-4-yl)pyrimidine-4,6-diamine], for which the IC50 is 6.6 nM in experiment [1] (setting [2]) and 9000 nM with HeLa cell line.

As to `CCNC(=O)Nc1nc(-c2nn(Cc3c(F)cc(OCC)cc3F)c3ccccc23)nc(Nc2ccncn2)c1N1CCOCC1` [Example 2-3-8, 1-{2-[1-(4-ethoxy-2,6-difluorobenzyl)-1H-indazol-3-yl]-5-(morpholin-4-yl)-6-(pyrimidin-4-ylamino)pyrimidin-4-yl}-3-ethylurea], the results for the IC50 (in experiment [1]; in the experiment with HeLa cell line (setting [3])) were 280 nM and above 10000 nM, respectively.

With `CCOc1cc(F)c(Cn2nc(-c3nc(N)nc(Nc4ccncc4)n3)c3ccccc32)c(F)c1` [Example 2-3-9, 6-[1-(4-ethoxy-2,6-difluorobenzyl)-1H-indazol-3-yl]-N-(pyridin-4-yl)-1,3,5-triazine-2,4-diamine], the IC50 in experiment [1] (setting [2]) was 5.8 nM; with HeLa cell line, 2900 nM.

As to `CCOc1cc(F)c(Cn2nc(-c3nc(N)c(OCCOC)c(Nc4ccncc4)n3)c3ccccc32)c(F)c1` [Example 2-3-10, 2-[1-(4-ethoxy-2,6-difluorobenzyl)-1H-indazol-3-yl]-5-(2-methoxyethoxy)-N-(pyridin-4-yl)pyrimidine-4,6-diamine], the IC50 in experiment [1] (setting [2]) came out at 7.2 nM; with HeLa cell line, 3900 nM.

With `CCOc1cc(F)c(Cn2nc(-c3nc(N)c(OCCOC)c(Nc4ccncn4)n3)c3ccccc32)c(F)c1` [Example 2-3-11, 2-[1-(4-ethoxy-2,6-difluorobenzyl)-1H-indazol-3-yl]-5-(2-methoxyethoxy)-N-(pyrimidin-4-yl)pyrimidine-4,6-diamine], the figures for the IC50 (in experiment [1] (setting [2]); in the experiment with HeLa cell line) were 5.2 nM and 3700 nM, respectively.

Turning to `CCOc1cc(F)c(Cn2nc(-c3nc(N)c(NC(=O)COC)c(Nc4ccncc4)n3)c3ccccc32)c(F)c1` [Example 2-3-13, N-{4-amino-2-[1-(4-ethoxy-2,6-difluorobenzyl)-1H-indazol-3-yl]-6-(pyridin-4-ylamino)pyrimidin-5-yl}-2-methoxyacetamide], the IC50 in experiment [1] (setting [2]) amounted to 11 nM; in the experiment with HeLa cell line, 7800 nM.

For the molecule `CCOc1cc(F)c(Cn2nc(-c3nc(Nc4ccncc4)cc(Nc4ccncc4)n3)c3ccccc32)c(F)c1` [Example 2-4-1, 2-[1-(4-ethoxy-2,6-difluorobenzyl)-1H-indazol-3-yl]-N,N′-di(pyridine-4-yl)pyrimidine-4,6-diamine], in experiment [1] (setting [2]), the IC50 amounted to 81 nM.

Take `CCOc1cc(F)c(Cn2nc(-c3nc(Nc4ccncn4)c(N4CCOCC4)c(Nc4ccncn4)n3)c3ccccc32)c(F)c1` [Example 2-4-4, 2-[1-(4-ethoxy-2,6-difluorobenzyl)-1H-indazol-3-yl]-5-(morpholin-4-yl)-N,N′-di(pyrimidin-4-yl)pyrimidine-4,6-diamine]: the IC50 in experiment [1] turned out to be 98 nM.

For the molecule `CCOc1cc(F)c(Cn2nc(-c3nc(Nc4ccncc4)c(OCCOC)c(Nc4ccncc4)n3)c3ccccc32)c(F)c1` [Example 2-4-6, 2-[1-(4-ethoxy-2,6-difluorobenzyl)-1H-indazol-3-yl]-5-(2-methoxyethoxy)-N,N′-di(pyridin-4-yl)pyrimidine-4,6-diamine], in the experiment with HeLa cell line (setting [3]), the IC50 was at least 10000 nM.

In the case of `CCOc1cc(F)c(Cn2nc(-c3nc(Nc4ccncn4)c(OCCOC)c(Nc4ccncn4)n3)c3ccccc32)c(F)c1` [Example 2-4-7, 2-[1-(4-ethoxy-2,6-difluorobenzyl)-1H-indazol-3-yl]-5-(2-methoxyethoxy)-N,N′-di(pyrimidin-4-yl)pyrimidine-4,6-diamine], in the experiment with HeLa cell line (setting [3]), the IC50 was at least 10000 nM.

Take `CCOc1cc(F)c(Cn2nc(-c3nc(Nc4ccncc4)c(NS(=O)(=O)C(F)(F)F)c(Nc4ccncc4)n3)c3ccccc32)c(F)c1` [Example 2-4-11, N-{2-[1-(4-ethoxy-2,6-difluorobenzyl)-1H-indazol-3-yl]-4,6-bis(pyridin-4-ylamino)pyrimidin-5-yl}-1,1,1-trifluoromethanesulfonamide]: the IC50 in experiment [1] (setting [2]) came out at 2100 nM.
